One test has as its target NaChBac (Halalkalibacterium halodurans (Bacillus halodurans), UniProt Q9KCR8, S273L). Briefly: cell-based. The format is cell-based.
In test [1] the test system is CHO-K1 cells or COS-7 cells. Briefly: Ca2+/Na+ selectivity of wt and mutant NaChBac, reversal potential under bi-ionic conditions (Example 2). The format is cell-based. The note with it: external solution 80 NMDG-Cl, 50 CaCl2, 20 HEPES. The procedure:
Unless otherwise stated, the pipette solution contained (in mM); 147 Cs, 120 methanesulfonate, 8 NaCl, 10 EGTA, 2 Mg^2+-adenosine triphosphate, and 20 HEPES (pH 7.4). Bath solution contained (in mM); 140 NaCl, 10 CaCl2, 5 KCl, 10 HEPES (pH 7.4), and 10 glucose. For some experiments, NaCl was isotonically replaced by CaCl2.
For reversal potential measurements to determine the relative permeabilities of Na^+ and Ca^2+, the internal pipette solution contained (in mM): 100 mM Na-Gluconate, 10 NaCl, 10 EGTA, 20 HEPES-Na (pH 7.4 adjusted with NaOH, [Na^+]total=140). The external solution was (in mM): 140 NMDG-Cl, 10 CaCl2, 20 HEPES (pH 7.4 adjusted with HCl) or 80 NMDG-Cl, 50 CaCl2, and 20 HEPES. The fast kinetics and small current amplitude of SKM1 in 10 mM [Ca^2+]o necessitated the use of 50 mM [Ca^2+]o for accurate determination of Erev. The permeability ratio of Ca2+ was estimated according to the following equation: PCa/Px=asi(exp(ErevF/RT)[(exp(ErevF/RT)+1]/(4ase) where R, T, F, and Erev are the gas constant, absolute temperature, Faraday constant, and reversal potential, respectively, and x represents Cs^+ or Na^+ (i, internal; e, external) (Hille 2001). For calculations of membrane permeability, activity coefficients for Ca^2+, Cs^+ and Na^+ were estimated as follows: as=γs[Xs] where activity, as, is the effective concentration of an ion in solution, s related to the nominal concentration [Xs] by the activity coefficient, γs·γs was calculated from the Debye-Hückel equation: log γs=−0.51*zs^2√μ/[1+3.8ασ√μ] where μ is the ionic strength of the solution, zs is the charge on the ion, and αs is the effective diameter of the hydrated ion in nanometers (nm). The calculated activity coefficients were γ(Cs)i=0.70, γ(Ca)e=0.331, γ(Na)i=0.75 and γ(Na)e=0.73. The liquid junction potentials were measured using a salt bridge as described by Neher (Neher 1992) and these measurements agreed within 3 mV to those calculated by the JPCalc program (P. Barry) within Clampex (Axon Instruments, Union City, Calif.).
Reversal potentials of the NaChBac mutants were measured under bi-ionic conditions as described in the Methods. […] The average peak current amplitude measured at 0 mV obtained in 10 mM Ca^2+ Tyrode's solution or in 105 mM Ca^2+ solution is shown in FIG. 7B and normalized to the current amplitude measured in 10 mM Ca^2+ solution (FIG. 7C).
Relative permeability (PCa/PNa) was calculated as described in the Methods and Table 1. Since PCa/PNa had not been described for native Nav channels under these specific conditions, we also measured the relative permeability for SKM1, a skeletal muscle Na^+-selective channel (SKM1; Kraner, Rich et al. 1998) was expressed in COS and CHO cells and examined under identical conditions as NaChBac and similar to its mutants; Table 1).

Like-named read-outs stand apart in the source and are kept apart here. Marks after values point to notes of the source that are not given here.

NaChBac, sequence (Q9KCR8 1-274 S273L): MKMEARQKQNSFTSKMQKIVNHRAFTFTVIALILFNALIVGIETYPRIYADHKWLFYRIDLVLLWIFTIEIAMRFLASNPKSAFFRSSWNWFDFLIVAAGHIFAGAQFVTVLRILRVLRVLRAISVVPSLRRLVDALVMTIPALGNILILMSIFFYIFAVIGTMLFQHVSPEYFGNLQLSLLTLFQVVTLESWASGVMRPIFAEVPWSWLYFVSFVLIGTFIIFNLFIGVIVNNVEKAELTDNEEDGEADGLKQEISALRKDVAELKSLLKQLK

As to `[Cd+2]` [Cd^2+], the “reduction of the channel current” value on NaChBac is “reduced the channel current to various degrees”.
`[Co+2]` [Co^2+]: on NaChBac, the “reduction of the channel current” value is reported as “reduced the channel current to various degrees”.
On to `[Ni+2]` [Ni^2+], for which the IC50 at NaChBac (read-out: concentration of agent needed to block INaChBac by 50% (IC50)) was found to be 720 µM.
`COCC(=O)O[C@]1(CCN(C)CCCc2nc3ccccc3[nH]2)CCc2cc(F)ccc2[C@@H]1C(C)C` [mibefradil]: on NaChBac, the IC50 was 22 µM and the “sensitivity of INaChBac to the blocker (figure legend)” value is “relatively insensitive”.
The compound `COC(=O)C1=C(C)NC(C)=C(C(=O)OC)C1c1ccccc1[N+](=O)[O-]` [nifedipine, Nifedipine] returned an IC50 on NaChBac of 2.2 µM.
In the case of `COCCOC(=O)C1=C(C)NC(C)=C(C(=O)OC(C)C)C1c1cccc([N+](=O)[O-])c1` (stereo not drawn) [nimodipine], the IC50 on NaChBac came to 1 µM.
On to `NC1=N[C@H](O)[C@H]2[C@H]3O[C@]4(O)O[C@@H]([C@@H](O)[C@@]2(N1)[C@@H]4O)[C@]3(O)CO` [tetrodotoxin, Tetrodotoxin], for which, at NaChBac, the “block of INaChBac” value is on record as “completely insensitive” and the “sensitivity of INaChBac to the blocker (figure legend)” value was “insensitive”.
In the case of “SKM1: skeletal muscle Na+ channel SKM1 (M26643), used in comparison to NaChBac [reference compound]”, in test [1], the PCa/PNa was 0.32 ± 0.07 (n = 8)^c.
Regarding ω-Agatoxin IVA, the “block of INaChBac” value on NaChBac was “ineffective”.
Same read-out and setting: next, ω-Conotoxin GVIA: “ineffective”.

The record behind these values is patent US7790845B2, “Bacterial ion channel” (Children's Medical Center Corporation, priority 2001, dated 2010).
